Measured values from patent US9084828B2, “Oligomer-protein tyrosine kinase inhibitor conjugates” (Nektar Therapeutics, priority 2009, dated 2015).

Columns and labels:
Type in all cases: biochemical
RSK1 = RSK1 (Homo sapiens, UniProt Q15418); test: Activity against various protein tyrosine kinases: RSK1
AKT1 = AKT1 (Homo sapiens, UniProt P31749); test: Activity against various protein tyrosine kinases: AKT1
CHK2 = CHK2 (Homo sapiens, UniProt O96017); test: Activity against various protein tyrosine kinases: CHK2
PKG1-beta = target: T1, PKG1-beta (Homo sapiens, UniProt Q13976); test: Activity against various protein tyrosine kinases: PKG1-beta
T1 sequence (Q13976 1-686 isoform Q13976-2): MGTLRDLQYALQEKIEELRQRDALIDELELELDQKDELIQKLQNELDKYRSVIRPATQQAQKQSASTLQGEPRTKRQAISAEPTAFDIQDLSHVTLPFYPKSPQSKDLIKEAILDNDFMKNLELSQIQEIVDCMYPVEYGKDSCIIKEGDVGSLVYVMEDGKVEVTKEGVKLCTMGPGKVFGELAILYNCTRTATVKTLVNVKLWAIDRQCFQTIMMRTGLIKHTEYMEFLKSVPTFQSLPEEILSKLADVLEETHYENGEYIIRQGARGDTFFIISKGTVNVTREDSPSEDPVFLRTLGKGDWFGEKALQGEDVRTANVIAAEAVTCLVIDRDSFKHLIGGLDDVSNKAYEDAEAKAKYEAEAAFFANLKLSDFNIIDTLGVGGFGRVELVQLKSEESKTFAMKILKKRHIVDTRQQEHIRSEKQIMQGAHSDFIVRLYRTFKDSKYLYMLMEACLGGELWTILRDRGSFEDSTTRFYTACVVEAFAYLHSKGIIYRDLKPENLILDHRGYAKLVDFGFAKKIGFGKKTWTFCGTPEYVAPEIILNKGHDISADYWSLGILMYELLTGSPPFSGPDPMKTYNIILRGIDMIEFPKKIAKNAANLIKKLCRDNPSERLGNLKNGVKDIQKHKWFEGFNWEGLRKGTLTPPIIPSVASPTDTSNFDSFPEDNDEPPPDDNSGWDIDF

TSSK1 = target: T2, TSSK1 (Homo sapiens, UniProt Q9BXA7); test: Activity against various protein tyrosine kinases: TSSK1
T2 sequence (Q9BXA7 1-367): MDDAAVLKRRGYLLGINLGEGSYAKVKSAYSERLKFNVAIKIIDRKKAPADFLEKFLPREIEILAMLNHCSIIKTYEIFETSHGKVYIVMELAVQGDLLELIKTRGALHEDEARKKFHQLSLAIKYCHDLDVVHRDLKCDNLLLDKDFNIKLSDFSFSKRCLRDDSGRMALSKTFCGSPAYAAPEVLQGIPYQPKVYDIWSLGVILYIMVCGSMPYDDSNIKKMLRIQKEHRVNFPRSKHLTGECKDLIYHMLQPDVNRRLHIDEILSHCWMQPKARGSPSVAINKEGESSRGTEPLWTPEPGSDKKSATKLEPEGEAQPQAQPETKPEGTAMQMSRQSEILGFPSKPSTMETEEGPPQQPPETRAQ

LYN = LYN (Homo sapiens, UniProt P07948); test: Activity against various protein tyrosine kinases: LYN
FYN = FYN (Homo sapiens, UniProt P06241); test: Activity against various protein tyrosine kinases: FYN
ABL(H396P) = ABL(H396P) (Homo sapiens, UniProt P00519, H396P); test: Activity against various protein tyrosine kinases: ABL(H396P)
Description: Using techniques know those of ordinary skill in the art, compounds were tested for activity against various protein tyrosine kinases.

EGFR = EGFR (Homo sapiens, UniProt P00533); test: Activity against various protein tyrosine kinases: EGFR
PDGFR_alpha = PDGFR_alpha (Homo sapiens, UniProt P16234); test: Activity against various protein tyrosine kinases: PDGFR_alpha
Erk2 = Erk2 (Homo sapiens, UniProt P28482); test: Activity against various protein tyrosine kinases: Erk2
AurB = AurB (Homo sapiens, UniProt Q96GD4); test: Activity against various protein tyrosine kinases: AurB
AurB, sequence (Q96GD4 whole entry): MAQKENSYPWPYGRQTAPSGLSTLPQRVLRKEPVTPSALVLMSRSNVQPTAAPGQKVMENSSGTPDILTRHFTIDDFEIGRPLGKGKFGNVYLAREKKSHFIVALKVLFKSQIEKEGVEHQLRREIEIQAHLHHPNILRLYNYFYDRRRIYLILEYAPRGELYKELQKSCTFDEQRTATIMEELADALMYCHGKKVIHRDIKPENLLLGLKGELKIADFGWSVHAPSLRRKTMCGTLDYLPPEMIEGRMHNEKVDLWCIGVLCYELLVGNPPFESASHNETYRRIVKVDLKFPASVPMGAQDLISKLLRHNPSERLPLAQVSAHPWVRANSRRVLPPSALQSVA

AKT1, sequence (P31749 whole entry, species assumed): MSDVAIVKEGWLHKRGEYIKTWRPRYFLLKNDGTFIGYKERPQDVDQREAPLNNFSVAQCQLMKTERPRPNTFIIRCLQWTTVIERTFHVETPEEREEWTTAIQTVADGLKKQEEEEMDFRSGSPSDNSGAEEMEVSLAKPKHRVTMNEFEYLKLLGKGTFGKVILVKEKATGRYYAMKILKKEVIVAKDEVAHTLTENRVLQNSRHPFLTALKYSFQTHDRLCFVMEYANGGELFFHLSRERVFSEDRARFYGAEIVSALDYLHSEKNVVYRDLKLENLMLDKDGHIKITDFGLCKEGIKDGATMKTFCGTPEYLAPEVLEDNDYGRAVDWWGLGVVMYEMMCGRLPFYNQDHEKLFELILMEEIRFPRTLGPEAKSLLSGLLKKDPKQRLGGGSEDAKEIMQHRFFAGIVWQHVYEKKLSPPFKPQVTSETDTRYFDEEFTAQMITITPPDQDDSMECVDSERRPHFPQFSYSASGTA
Erk2, sequence (P28482 whole entry, species assumed): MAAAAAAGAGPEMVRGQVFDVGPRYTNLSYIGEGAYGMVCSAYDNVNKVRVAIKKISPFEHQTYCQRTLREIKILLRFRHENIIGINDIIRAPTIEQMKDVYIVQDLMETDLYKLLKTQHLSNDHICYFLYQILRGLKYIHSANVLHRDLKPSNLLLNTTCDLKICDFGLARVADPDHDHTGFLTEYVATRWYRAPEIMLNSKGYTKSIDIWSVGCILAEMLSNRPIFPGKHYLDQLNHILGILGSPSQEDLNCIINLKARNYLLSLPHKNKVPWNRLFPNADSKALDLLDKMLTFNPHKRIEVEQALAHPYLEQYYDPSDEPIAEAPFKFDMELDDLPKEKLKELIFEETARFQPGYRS
PDGFR_alpha, sequence (P16234 24-1089, species assumed): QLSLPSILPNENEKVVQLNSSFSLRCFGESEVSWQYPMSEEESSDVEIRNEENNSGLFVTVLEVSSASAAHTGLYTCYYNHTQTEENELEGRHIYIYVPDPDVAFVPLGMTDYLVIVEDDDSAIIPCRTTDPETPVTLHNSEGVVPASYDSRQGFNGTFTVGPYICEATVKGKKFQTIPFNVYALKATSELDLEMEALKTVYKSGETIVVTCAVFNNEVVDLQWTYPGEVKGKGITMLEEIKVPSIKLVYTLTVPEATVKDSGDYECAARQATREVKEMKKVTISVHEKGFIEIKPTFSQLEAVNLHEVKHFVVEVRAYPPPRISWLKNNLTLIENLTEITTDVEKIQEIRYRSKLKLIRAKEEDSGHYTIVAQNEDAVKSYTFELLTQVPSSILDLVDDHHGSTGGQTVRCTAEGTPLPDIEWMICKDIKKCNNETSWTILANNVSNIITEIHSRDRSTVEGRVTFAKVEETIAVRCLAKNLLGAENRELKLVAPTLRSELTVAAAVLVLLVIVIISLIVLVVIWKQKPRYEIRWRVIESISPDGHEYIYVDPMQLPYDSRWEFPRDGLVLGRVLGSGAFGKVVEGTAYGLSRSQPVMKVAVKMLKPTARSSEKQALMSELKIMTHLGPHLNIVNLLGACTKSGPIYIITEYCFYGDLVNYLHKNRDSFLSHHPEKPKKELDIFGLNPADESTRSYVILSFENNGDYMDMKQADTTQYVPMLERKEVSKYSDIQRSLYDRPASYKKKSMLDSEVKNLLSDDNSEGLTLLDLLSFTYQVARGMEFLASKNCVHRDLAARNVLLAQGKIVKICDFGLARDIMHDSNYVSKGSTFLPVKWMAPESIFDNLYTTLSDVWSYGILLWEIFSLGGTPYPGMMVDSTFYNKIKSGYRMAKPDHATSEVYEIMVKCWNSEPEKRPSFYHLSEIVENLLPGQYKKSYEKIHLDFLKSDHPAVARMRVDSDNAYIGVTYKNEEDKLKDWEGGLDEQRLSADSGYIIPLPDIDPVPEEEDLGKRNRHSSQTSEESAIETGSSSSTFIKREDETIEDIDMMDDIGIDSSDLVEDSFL
LYN, sequence (P07948 whole entry, species assumed): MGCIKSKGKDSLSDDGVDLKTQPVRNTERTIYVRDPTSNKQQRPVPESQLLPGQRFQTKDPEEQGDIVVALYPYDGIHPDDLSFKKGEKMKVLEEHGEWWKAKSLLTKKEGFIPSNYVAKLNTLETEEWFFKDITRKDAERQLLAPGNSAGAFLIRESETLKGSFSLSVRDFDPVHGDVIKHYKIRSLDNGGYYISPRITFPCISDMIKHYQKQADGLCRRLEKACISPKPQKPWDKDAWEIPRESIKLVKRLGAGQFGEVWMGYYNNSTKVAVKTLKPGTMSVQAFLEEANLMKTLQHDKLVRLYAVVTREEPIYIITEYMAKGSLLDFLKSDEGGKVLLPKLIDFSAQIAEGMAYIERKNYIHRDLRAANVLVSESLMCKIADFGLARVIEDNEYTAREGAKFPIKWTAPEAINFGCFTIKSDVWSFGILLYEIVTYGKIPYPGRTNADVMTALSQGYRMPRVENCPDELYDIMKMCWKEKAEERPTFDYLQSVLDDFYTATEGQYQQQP
CHK2, sequence (O96017 whole entry, species assumed): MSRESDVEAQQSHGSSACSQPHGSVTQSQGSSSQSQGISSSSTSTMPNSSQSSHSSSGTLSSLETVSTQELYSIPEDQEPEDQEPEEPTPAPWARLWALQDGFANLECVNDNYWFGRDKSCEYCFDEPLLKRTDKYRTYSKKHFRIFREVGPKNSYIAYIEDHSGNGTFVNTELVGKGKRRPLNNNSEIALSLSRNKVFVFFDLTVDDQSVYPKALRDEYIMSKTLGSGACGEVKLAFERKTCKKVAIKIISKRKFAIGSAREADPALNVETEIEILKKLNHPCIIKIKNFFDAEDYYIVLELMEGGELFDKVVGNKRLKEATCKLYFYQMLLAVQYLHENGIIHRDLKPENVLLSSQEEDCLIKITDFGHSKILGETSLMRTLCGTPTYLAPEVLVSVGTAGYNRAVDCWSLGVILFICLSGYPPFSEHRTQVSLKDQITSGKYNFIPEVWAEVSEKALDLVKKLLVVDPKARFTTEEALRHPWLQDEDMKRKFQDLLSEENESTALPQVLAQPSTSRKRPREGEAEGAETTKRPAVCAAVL
FYN, sequence (P06241 whole entry, species assumed): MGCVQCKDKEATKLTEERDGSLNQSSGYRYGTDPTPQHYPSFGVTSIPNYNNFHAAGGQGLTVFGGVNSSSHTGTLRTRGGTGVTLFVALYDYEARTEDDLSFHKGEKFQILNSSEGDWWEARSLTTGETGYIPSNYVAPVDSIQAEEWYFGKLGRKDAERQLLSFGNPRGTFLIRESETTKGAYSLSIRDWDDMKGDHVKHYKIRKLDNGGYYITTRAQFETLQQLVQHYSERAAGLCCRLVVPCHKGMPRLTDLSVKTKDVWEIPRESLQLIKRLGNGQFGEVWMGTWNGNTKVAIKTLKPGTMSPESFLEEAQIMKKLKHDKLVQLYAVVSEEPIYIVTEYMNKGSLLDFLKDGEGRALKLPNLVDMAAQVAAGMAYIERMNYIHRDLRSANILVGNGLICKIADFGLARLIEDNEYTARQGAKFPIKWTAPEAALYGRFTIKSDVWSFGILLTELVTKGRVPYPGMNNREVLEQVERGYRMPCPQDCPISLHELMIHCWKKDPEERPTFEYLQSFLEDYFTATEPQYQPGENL
EGFR, sequence (P00533 25-1210, species assumed): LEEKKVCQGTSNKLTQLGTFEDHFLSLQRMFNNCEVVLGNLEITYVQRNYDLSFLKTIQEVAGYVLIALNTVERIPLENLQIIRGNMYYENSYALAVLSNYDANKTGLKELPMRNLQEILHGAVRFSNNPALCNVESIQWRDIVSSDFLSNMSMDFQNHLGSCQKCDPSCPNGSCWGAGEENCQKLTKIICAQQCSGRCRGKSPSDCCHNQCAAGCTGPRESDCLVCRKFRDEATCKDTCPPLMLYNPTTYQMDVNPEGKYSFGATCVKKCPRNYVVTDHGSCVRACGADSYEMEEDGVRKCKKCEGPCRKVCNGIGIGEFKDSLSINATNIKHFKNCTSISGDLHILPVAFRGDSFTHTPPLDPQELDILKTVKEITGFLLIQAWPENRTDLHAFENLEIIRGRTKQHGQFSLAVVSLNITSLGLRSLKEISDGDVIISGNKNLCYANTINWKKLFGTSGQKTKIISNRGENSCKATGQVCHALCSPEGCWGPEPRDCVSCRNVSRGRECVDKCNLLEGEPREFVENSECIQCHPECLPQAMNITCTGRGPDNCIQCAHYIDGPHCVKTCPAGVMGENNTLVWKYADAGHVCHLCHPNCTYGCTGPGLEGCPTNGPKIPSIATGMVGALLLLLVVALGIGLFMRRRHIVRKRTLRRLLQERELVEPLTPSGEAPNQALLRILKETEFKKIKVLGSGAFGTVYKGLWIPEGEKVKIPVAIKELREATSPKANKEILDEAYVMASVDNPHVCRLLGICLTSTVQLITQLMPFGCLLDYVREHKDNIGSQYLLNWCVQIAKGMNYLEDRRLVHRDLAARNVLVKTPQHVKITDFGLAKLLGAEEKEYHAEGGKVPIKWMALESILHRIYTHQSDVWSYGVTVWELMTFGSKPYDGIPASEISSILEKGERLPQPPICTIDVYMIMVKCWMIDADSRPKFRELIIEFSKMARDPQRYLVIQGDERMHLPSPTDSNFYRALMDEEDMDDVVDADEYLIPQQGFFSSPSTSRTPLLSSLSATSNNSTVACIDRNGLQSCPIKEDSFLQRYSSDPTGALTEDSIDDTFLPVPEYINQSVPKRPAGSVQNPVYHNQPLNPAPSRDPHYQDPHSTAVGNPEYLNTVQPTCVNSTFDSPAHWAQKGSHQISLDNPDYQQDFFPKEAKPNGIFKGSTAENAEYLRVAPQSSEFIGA

| SMILES | % Inhibition at 10 nM (RSK1) [%] | % Inhibition at 1 μM (RSK1) [%] | % Inhibition at 10 nM (AKT1) [%] | % Inhibition at 1 μM (AKT1) [%] | % Inhibition at 10 nM (CHK2) [%] | % Inhibition at 1 μM (CHK2) [%] | % Inhibition at 10 nM (PKG1-beta) [%] | % Inhibition at 1 μM (PKG1-beta) [%] | % Inhibition at 10 nM (TSSK1) [%] | % Inhibition at 1 μM (TSSK1) [%] | % Inhibition at 10 nM (LYN) [%] | % Inhibition at 1 μM (LYN) [%] | % Inhibition at 10 nM (FYN) [%] | % Inhibition at 1 μM (FYN) [%] | % Inhibition at 10 nM (ABL(H396P)) [%] | % Inhibition at 1 μM (ABL(H396P)) [%] | % Inhibition at 10 nM (EGFR) [%] | % Inhibition at 1 μM (EGFR) [%] | % Inhibition at 10 nM (PDGFR_alpha) [%] | % Inhibition at 1 μM (PDGFR_alpha) [%] | further results |
| --- | --- | --- | --- | --- | --- | --- | --- | --- | --- | --- | --- | --- | --- | --- | --- | --- | --- | --- | --- | --- | --- |
| COCCOCCOCCOCCOCCOCCOCCNC(=O)OCCN1CCN(c2cc(Nc3ncc(C(=O)Nc4c(C)cccc4Cl)s3)nc(C)n2)CC1 [mPEG7-NHCOO-Dasatinib] | 0 | 4 | −1 | 0 | 2 | 1 | −3 | −3 | −3 | −5 | 98 | 98 | 98 | 98 | 99 | 99 | 6 | 62 | 46 | 98 | % Inhibition at 10 nM (Erk2): 3%; % Inhibition at 1 μM (Erk2): 2%; % Inhibition at 10 nM (AurB): 0%; % Inhibition at 1 μM (AurB): 4% |
| COCCOCCOCCNC(=O)OCCN1CCN(c2cc(Nc3ncc(C(=O)Nc4c(C)cccc4Cl)s3)nc(C)n2)CC1 [mPEG3-NHCOO-Dasatinib] | 2 | 0 | 7 | 0 | 1 | 11 | −2 | 0 | −1 | 0 | 99 | 99 | 98 | 99 | 99 | 99 | 3 | 76 | 58 | 99 | % Inhibition at 10 nM (Erk2): 6%; % Inhibition at 1 μM (Erk2): 11%; % Inhibition at 10 nM (AurB): −1%; % Inhibition at 1 μM (AurB): 4% |
